Tests used:
GlAD [1] = target: T1, GlAD (Giardia duodenalis, UniProt Q27657); assay: steady-state inhibition, glutamate dehydrogenase-coupled assay; format: biochemical
GlAD [2] = target: T1, GlAD; format: biochemical; settings: read-out: KI; pH 7.5, 25 °C, 50 mM K+HEPES; covalent; irreversible, two-step inactivation; active site directed

| Structure (SMILES) | Ki (GlAD [1]) [mM] | KI (inactivation) (GlAD [2]) [mM] |
| --- | --- | --- |
| N=C(N)NCCCC[C@H](N)C(=O)O [L-homoarginine] | 48 ± 6 |  |
| N=C(N)NCCCCN [agmatine] | 50 ± 10 |  |
| N[C@@H](CCSN=O)C(=O)O [S-nitroso-L-homocysteine] |  | 40 ± 10 |
